Test results published in patent publication EP1325958A1, “Genetic sequence coding for creatinine deiminase, and its use” (CampusGen GmbH, priority 2002, dated 2003).

What follows are compounds tested on Creatinin-Deiminase (EC 3.5.4.21) aus Tissierella creatinini, heterolog in E. coli exprimiert, gereinigt, SEQ ID NO:2 (assay: Substrate saturation of purified recombinant creatinine deiminase (coupled optical test, Lineweaver-Burk plot)). Conditions: purified recombinant enzyme, 0,06 µg per test, coupled optical test, 37°C, TEA-Puffer pH 8,6, read-out: Km-Wert für Creatinin.
Assay type: biochemical
From the text: Abb. 1: Biosynthese von Creatin und Creatinin im menschlichen Körper. Die Synthese erfolgt in mehreren Schritten in verschiedenen Körperorganen. Abb. 2: Enzymatische Bestimmung von Creatinin mit Creatininase, Creatin-Kinase, Pyruvat-Kinase und Laktatdehydrogenase. Creatinin wird katalysiert durch Creatininase und Creatin-Kinase gekoppelt mit Pyruvatbildung. Das Pyruvat wird in der Indikatorreaktion in Gegenwart von Laktatdehydrogenase zu Laktat umgesetzt und dabei eine Extinktionsabnahme bei 340 nm von NADH gemessen. Abb.3: Enzymatische Bestimmung von Creatinin mit Creatininase, Creatinase, Sarcosinoxidase und Peroxidase. Creatinin wird katalysiert durch Creatininase, Creatinase und Sarcosinoxidase zu Glycin, Formaldehyd und H2O2 abgebaut. Das H2O2 wird in der Indikatorreaktion mittels Peroxidase anhand der Extinktionszunahme bei 510 oder 546 nm bestimmt. Abb.4: Enzymatische Bestimmung von Creatinin mit Creatinin-Deiminase und Glutamatdehydrogenase. Creatinin wird katalysiert durch Creatinin-Deiminase zu N-Methylhydantoin und Ammoniak abgebaut. Der Ammoniak wird mit α-Ketoglutarat und NADH mittels Glutamat-Dehydrogenase zu Glutamat umgesetzt und photometrisch die Extinktionsabnahme durch Verbrauch an NADH bei 340 bzw. 365 nm gemessen. Abb. 5: Schematische Darstellung des pBluescriptSK^+-Vektors. Gezeigt sind einige Restriktionsschnittstellen. […]

Q: Which Km does the source give for `CN1CC(=O)N=C1N` [Creatinin] here?
A: Its Km is 1100 µM.

Same assay, conditions: substrate Creatinin, this enzyme preparation, Proteinkonzentration: 6 µg/ml --> 1467 U/mg

Q: Which Vmax does the source give for `CN1CC(=O)N=C1N` [Creatinin] here?
A: The Vmax was 8,8 U/ml.

What follows are compounds tested on Creatinin-Deiminase (EC 3.5.4.21) aus Tissierella creatinini, heterolog in E. coli exprimiert, gereinigt, SEQ ID NO:2 (assay: Interference studies: substances added to the standard creatinine deiminase test, enzyme activity determined). Conditions: statement in the text referring to Tabelle 1.
Assay type: biochemical
Procedure: Dieses erfindungsgemäße Verfahren ermöglicht die Bestimmung von Creatinin bei Einsatz von nur zwei Enzymen, die in einer Mess- bzw. Indikatorreaktion eingesetzt werden, wobei keine komplizierten Hilfsreaktionen erforderlich sind. Wie in Tabelle 1 gezeigt ist, weist die erfindungsgemäße Creatinin-Deiminase eine außerordentlich hohe Spezifität für sein Substrat Creatinin auf. Das Enzym zeigt insbesondere mit Cytosin bis zu einer Konzentration von […] keine Interferenz in der Reaktion. Somit ermöglicht die erfindungsgemäße Creatinin-Deiminase eine Bestimmung von Creatinin auch in Gegenwart anderer Substrate, insbesondere Cytosin ohne das Auftreten einer Interferenz, die das Messergebnis verfälschen würde. Tabelle 1:
Die Aktivität des gereinigten rekombinanten Enzyms wurde durch eine modifizierte enzymatische Methode nach Bergmeyer 1985 (BERGMEYER, H.U. (1985). Methods of enzymatic analysis 8: 488-507) bestimmt. Sie beruht auf der Messung des während der Creatinindeiminierung freigesetzten Ammoniaks in einem gekoppelten optischen Test durch Verbrauch von NADH bei 340 nm bzw. 365 nm. Der Reaktionsansatz enthielt folgende Konzentrationen in einem Endvolumen von 0,6 ml: TEA-Puffer 0,11 mol/l, pH 8,6; Creatinin 1,5 mmol/l; ADP 1,11 mmol/l; DTE 1 mmol/l; NADH 0,11 mmol/l; 2-Oxoglutarat 11 mmol/l; Glutamat-Dehydrogenase 8 U/ml. Nach Inkubation des Reaktionsansatzes (5 min bei 37°C) in einer Küvette im Photometer wurde die Reaktion mit 0,01 ml des gereinigten rekombinanten Enzyms gestartet und die Extinktionsabnahme bei 340 nm beobachtet. Eine Enzymeinheit katalysiert den Abbau von 1 µmol Creatinin/min bei 37°C.
Es wurden Interferenzstudien mit der gereinigten heterolog exprimierten Creatinin-Deiminase mit verschiedenen in Seren relevanten Substanzen durchgeführt. Diese wurden zum Standardtestansatz gegeben und jeweils die Aktivität der Creatinin-Deiminase bestimmt. In Tabelle 1 sind die getesteten relevanten Substanzen aufgelistet, die in den angegebenen Konzentrationen keine Interferenzen mit dem Enzymtest zeigten. Die rekombinante Creatinin-Deiminase zeigte eine außerordentliche Substratspezifität bei Zusatz der in Tabelle 1 angegebenen Substanzen.

Q: `Nc1cc[nH]c(=O)n1` [Cytosin] was tested. Which “keine Interferenz in der Reaktion bis zu einer Konzentration von” value did it give?
A: The value was 2000 mg/mL.

Same assay, conditions: substance added to the standard test (Creatinin 1,5 mmol/l, 37°C, pH 8,6); no interference with the enzyme test at the stated concentration

Q: For `Nc1nc(=O)[nH]cc1F` [5-Fluorocytosin], which “Keine Interferenzen bis zu einer Konzentration von” value is on record?
A: The value was 1000 mg/L.

Q: For `CC(C)=O` [Aceton], which “Keine Interferenzen bis zu einer Konzentration von” value is on record?
A: The value was 2000 mg/L.

Q: Which “Keine Interferenzen bis zu einer Konzentration von” value does the source give for `O=C1O[C@H]([C@@H](O)CO)C(O)=C1O` [Ascorbinsäure] here?
A: Its value is 200 mg/L.

Q: How did the “Keine Interferenzen bis zu einer Konzentration von” value turn out when `C[C@H](CS)C(=O)N1CCC[C@H]1C(=O)O` [Captopril] was run?
A: The value was 83 mg/L.

Q: For `CN(CC(=O)O)C(=N)N` [Creatin], which “Keine Interferenzen bis zu einer Konzentration von” value is on record?
A: Its value is 2000 mg/L.

Q: Which “Keine Interferenzen bis zu einer Konzentration von” value does the source give for `Nc1cc[nH]c(=O)n1` [Cytosin] here?
A: Its value is 2000 mg/L.

Q: `CNC[C@H](O)c1ccc(O)c(O)c1` [Epinephrin] was tested. Which “Keine Interferenzen bis zu einer Konzentration von” value did it give?
A: The value was 0,05 mg/l.

Q: Which “Keine Interferenzen bis zu einer Konzentration von” value does the source give for `NS(=O)(=O)c1cc(C(=O)O)c(NCc2ccco2)cc1Cl` [Fuoresemid] here?
A: The value was 4433 mg/L.

Q: How did the “Keine Interferenzen bis zu einer Konzentration von” value turn out when `OC[C@H]1OC(O)[C@H](O)[C@@H](O)[C@@H]1O` (some centres unmarked) [Glukose] was run?
A: The value was 1100 mg/L.

Q: How did the “Keine Interferenzen bis zu einer Konzentration von” value turn out when `N[C@@H](Cc1c[nH]cn1)C(=O)O` [Histidin] was run?
A: Its value is 2250 mg/L.

Q: With `NCC(O)c1cccc(O)c1` (centres unmarked) [Norfenefrin] as the compound, how does the “Keine Interferenzen bis zu einer Konzentration von” value read?
A: Its value is 1,5 mg/l.

Q: `O=C(O)C(=O)O` [Oxalsäure] was tested. Which “Keine Interferenzen bis zu einer Konzentration von” value did it give?
A: The value was 400 mg/L.

Q: With `O=C(O)c1cc(N=Nc2ccc(S(=O)(=O)Nc3ccccn3)cc2)ccc1O` [Salazosulfapyridin] as the compound, how does the “Keine Interferenzen bis zu einer Konzentration von” value read?
A: Its value is 550 mg/L.

Q: Which “Keine Interferenzen bis zu einer Konzentration von” value does the source give for `Cc1cc(NS(=O)(=O)c2ccc(N)cc2)no1` [Sulfatmethoxazol] here?
A: The value was 500 mg/L.

Q: Which “Keine Interferenzen bis zu einer Konzentration von” value does the source give for `COc1cc(Cc2cnc(N)nc2N)cc(OC)c1OC` [Trimethoprim] here?
A: Its value is 46 mg/L.

Q: How did the “Keine Interferenzen bis zu einer Konzentration von” value turn out when `CN[C@H](CC(C)C)C(=O)N[C@H]1C(=O)N[C@@H](CC(N)=O)C(=O)N[C@H]2C(=O)N[C@H]3C(=O)N[C@H](C(=O)N[C@H](C(=O)O)c4cc(O)cc(O)c4-c4cc3ccc4O)[C@H](O)c3ccc(c(Cl)c3)Oc3cc2cc(c3O[C@@H]2O[C@H](CO)[C@@H](O)[C@H](O)[C@H]2O[C@H]2C[C@](C)(N)[C@H](O)[C@H](C)O2)Oc2ccc(cc2Cl)[C@H]1O` [Vancomycin] was run?
A: Its value is 288 mg/L.

Q: How did the “Keine Interferenzen bis zu einer Konzentration von” value turn out when `CC(N)(Cc1ccc(O)c(O)c1)C(=O)O` (stereo not drawn) [α-Methyl-Dopa] was run?
A: Its value is 107 mg/L.
